Data from patent US9744188B2, “Methods of promoting neuronal outgrowth by gypican 2 that binds to receptor protein tyrosine phosphatase sigma” (PRESIDENT AND FELLOWS OF HARVARD COLLEGE, priority 2011, dated 2017).
One block for each molecule: values may come before it.

Key:
DLAR Ig1-FN3 = molecular target: T1, DLAR Ig1-FN3 (Drosophila melanogaster, UniProt P16621); assay: SEC-MALS, heparin-induced oligomerisation of DLAR; assay type: biochemical
T1 construct: hexahistidine (C); made in house; host or cells: HEK-293T cells with kifunensine or GnTI- HEK293S cells
T1 sequence (P16621 33-606): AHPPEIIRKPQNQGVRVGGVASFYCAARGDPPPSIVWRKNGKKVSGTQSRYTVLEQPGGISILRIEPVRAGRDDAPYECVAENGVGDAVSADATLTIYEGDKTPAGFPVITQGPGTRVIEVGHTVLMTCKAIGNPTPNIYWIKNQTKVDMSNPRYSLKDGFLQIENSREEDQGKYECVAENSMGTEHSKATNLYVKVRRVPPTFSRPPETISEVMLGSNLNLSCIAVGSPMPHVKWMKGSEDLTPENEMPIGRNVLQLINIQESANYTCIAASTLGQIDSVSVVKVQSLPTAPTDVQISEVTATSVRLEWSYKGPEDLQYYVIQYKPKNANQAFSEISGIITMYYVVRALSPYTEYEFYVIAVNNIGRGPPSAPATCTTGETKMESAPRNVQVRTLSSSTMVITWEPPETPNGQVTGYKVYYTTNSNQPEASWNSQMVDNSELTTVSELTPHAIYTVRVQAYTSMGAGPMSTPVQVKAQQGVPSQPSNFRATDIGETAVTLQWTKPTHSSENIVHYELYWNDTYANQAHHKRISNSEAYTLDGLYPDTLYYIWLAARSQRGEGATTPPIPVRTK
Method: MALS experiments were carried out on a […] System (Wyatt Technologies). All proteins were purified as described above, and samples were incubated alone or with an oligosaccharide ligand for an hour at room temperature prior to use in MALS analysis. For size defined heparin fragments (Iduron dp4-dp30; product codes HO04-HO30) a five-fold molar excess of oligosaccharide to protein was used, except for the series of experiments presented in FIG. 13, where a range of RPTPσ constructs were tested with a separate batch of dp10 at a two-fold molar excess (FIG. 37, highlighted in blue). Equivalent amounts (equal mg/ml concentrations) of HS (Iduron, GAG-HS01) and CS (Sigma, C4384) were used for MALS experiments as had been for heparin dp10 (in giving a five-fold molar excess). […] All Ig1-FN3 proteins were injected at approximately 10 μM. Size exclusion chromatography was performed in 10 mM Tris, 50 mM NaCl, pH 7.5 on a Superdex75 or Superdex200 HR10/30 column (GE Healthcare), attached to an Agilent chromatography system. An Optilab rEX Refractive Index detector and a Dawn Helios II Multi-Angle Light Scattering (MALS) detector recorded the refractive index and light scattering of the samples upon elution from the size exclusion column. The Wyatt software ASTRA was used to analyse all the data collected.

[1] = molecular target: Mouse RPTPσ sEcto-Fc (mouse) (UniProt B0V2N1); assay: solid phase binding assay, immobilised mouse RPTPσ sEcto-Fc, bound AP activity; Kd from the binding curve, one-to-one binding assumed; Scatchard inset

oligomerisation of DLAR Ig1-FN3 (DLAR Ig1-FN3): promotes the oligomerisation
Molecule: Heparin

Kd [1]: 10.5 nM
B1: Glypican-2-AP (protein, mouse, UniProt Q8BKV1 22-555, looked up, not shown: large carriers)
chain: HGSEAKVVRSCAETRQVLGARGYSLNLIPPSLISGEHLQVCPQEYTCCSSETEQKLIRDAEVTFRGLVEDSGSFLIHTLAARHRKFNEFFREMLSISQHSLAQLFSHSYGRLYSQHAVIFNSLFSGLRDYYEKSGEGLDDTLADFWAQLLERAFPLLHPQYSFPPDFLLCLTRLTSTADGSLQPFGDSPRRLRLQISRALVAARALVQGLETGRNVVSEALKVPVLEGCRQALMRLIGCPLCRGVPSLMPCRGFCLNVAHGCLSSRGLEPEWGGYLDGLLLLAEKLQGPFSFELAAESIGVKISEGLMHLQENSVKVSAKVFQECGTPHPVQSRSRRAPAPREEASRSWRASAEEERPTTAAGTNLHRLVWELRERLSRVRGFWAGLPVTVCGDSRMAADLSQETAPCWTGVGRGRYMSPVVVGSLNEQLHNPELDTSSPDVPTRRRRLHLRAATARMKAAALGQDLDMHDADEDASGSGGGQQYADDWKAGAVPVVPPARPPRPPRPPRRDGLGVRGGSGSARYNQGRSRNLG
modifications: carries heparan sulfate GAG chains (removed by heparitinase III)
